Results on 22 compounds are retold here after patent US20260166039A1 (SCHRÖDINGER, INC., priority 2022, published 2026).

For one assay, the target named is T1, Wee1 kinase domain (Homo sapiens, UniProt P30291).
T1 construct: Wee1 kinase domain was purchased from Carna (catalog #05-177); purchased Carna 05-177
Nature of the assay: Wee1 Kinase Biochemical Assay (ADP-Glo). Particulars: 15 uM ATP. An outline of the steps: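 ADP-Glo luminescence readout of ADP produced by 1 nM kinase domain phosphorylating Poly(Lys,Tyr 4:1) (2 ng/mL) at 15 uM ATP. Reaction ran 4 h, 25 °C, in Tris/MgCl2 buffer with BSA and DTT. Inhibition scaled between DMSO (high) and saturating control inhibitor (low).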
(ADP-Glo first removes unused ATP, then detects ADP through luciferase.)

The test system of assay [1] is phosphorylation of Cdc2 Y15 (Wee1 substrate) in A427 cells. Nature of the assay: Phosphorylated Cdc2 MSD Electrochemiluminescence Assay. Particulars: Homo sapiens. The assay is classed as cell-based. An outline of the steps: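 Read-out: percent residual phospho-Cdc2 Y15 relative to DMSO and positive-control Wee1 inhibitor, measured by MSD electrochemiluminescence capture/detection antibody assay in cell lysates. A427 cells received duplicate 3-fold compound dilution series 20 h post-seeding, with 6 h total incubation at 37 °C.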

Where [2] appears, read: class symbols, 1 nM Wee1 enzyme, 4 hours at 25° C.
[3] abbreviates: A-427, class symbols, read-out: A427 pCDC2 MSD IC50.

Read-outs that look alike come from different tables or passages of the source. Where only a bound is given, the exact number is not on record here.

T1 sequence (P30291 299-569 limits assumed): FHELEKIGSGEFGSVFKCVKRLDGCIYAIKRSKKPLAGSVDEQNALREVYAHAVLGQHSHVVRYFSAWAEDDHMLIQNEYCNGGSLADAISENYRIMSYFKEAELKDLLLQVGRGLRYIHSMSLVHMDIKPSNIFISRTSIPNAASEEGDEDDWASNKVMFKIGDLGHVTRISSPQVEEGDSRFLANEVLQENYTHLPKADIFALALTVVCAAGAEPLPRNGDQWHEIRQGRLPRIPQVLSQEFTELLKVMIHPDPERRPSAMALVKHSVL

As usually defined, the IC50 is the point on the concentration scale where inhibition reaches its midpoint. In the case of `Cn1ccc(Nc2ncc3c(n2)N(c2cccc(P(C)(C)=O)n2)[C@@H]2CC(C)(C)OC[C@]32C)cc1=O` (single isomer, unassigned) [Example 779], the IC50 is less than 10 nM at Wee1 kinase domain (setting [2]) and less than 100 nM in assay [1] (setting [3]).
For `CC1(C)C[C@H]2N(c3cccc(P(C)(C)=O)n3)c3nc(Nc4ccn(C5CCOCC5)c(=O)c4)ncc3[C@@]2(C)CO1` (single isomer, unassigned) [Example 780] the same measures were less than 10 nM and less than 100 nM.
As for `C[C@H]1COC(=O)N1c1cccc(N2c3nc(Nc4ccn(C5CCOCC5)c(=O)c4)ncc3[C@@]3(C)COC(C)(C)C[C@@H]23)n1` (single isomer, unassigned) [Example 781], the IC50 against Wee1 kinase domain (setting [2]) is less than 10 nM; in assay [1] (setting [3]) it was 100 to 1000 nM.
Take `C[C@H]1COC(=O)N1c1cccc(N2c3nc(Nc4ccc(N5CC6(CN(C)C6)C5)cc4)ncc3[C@@]3(C)COCC[C@@H]23)n1` (single isomer, unassigned) [Example 784]: the values for the IC50 (against Wee1 kinase domain (setting [2]); in assay [1] (setting [3])) were less than 10 nM and 100 to 1000 nM, respectively.
In the case of `CC1(C)C[C@H]2N(c3cccc(N=S(C)(C)=O)n3)c3nc(Nc4ccnnc4)ncc3[C@@]2(C)CO1` (single isomer, unassigned) [Example 799], the values for the IC50 (against Wee1 kinase domain (setting [2]); in assay [1] (setting [3])) were less than 10 nM and 1000 to 10000 nM, respectively.
As for `CN1CCC(n2ccc(Nc3ncc4c(n3)N(c3cccc(C(C)(C)O)n3)[C@@H]3CC(C)(C)OC[C@]43C)cc2=O)CC1` (single isomer, unassigned) [Example 810], the IC50 at Wee1 kinase domain (setting [2]) was less than 10 nM; in assay [1] (setting [3]), 100 to 1000 nM.
The like results for `CN1CC[C@@H](Oc2ccc(Nc3ncc4c(n3)N(c3cccc(C(C)(C)O)n3)C3CC(C)(C)OCC43C)cc2)C1` (stereo in doubt) [Example 423, 2-(6-((4bR,8aR)-4b,7,7-trimethyl-2-((4-(((R)-1-methylpyrrolidin-3-yl)oxy)phenyl)amino)-4b,7,8,8a-tetrahydropyrano[3′,4′:4,5]pyrrolo[2,3-d]pyrimidin-9(5H)-yl)pyridin-2-yl)propan-2-ol] were, in that order, less than 10 nM and 100 to 1000 nM.
Take `CC1(C)CC2N(c3cccc([C@@H]4CCNC4)n3)c3nc(Nc4ccc(N5CCOCC5)cc4)ncc3C2(C)CO1` (stereo in doubt) [Example 539, (4bR,8aR)-4b,7,7-trimethyl-N-(4-morpholinophenyl)-9-(6-((R)-pyrrolidin-3-yl)pyridin-2-yl)-4b,5,7,8,8a,9-hexahydropyrano[3′,4′:4,5]pyrrolo[2,3-d]pyrimidin-2-amine]: the IC50 on Wee1 kinase domain (setting [2]) was less than 10 nM; in assay [1] (setting [3]), 100 to 1000 nM.
The like results for `CN[C@H]1CCc2ccc(N3c4nc(Nc5ccc(N6CCOCC6)cc5)ncc4C4(C)COC(C)(C)CC34)nc21` (stereo in doubt) [Example 551, (4bR,8aR)-4b,7,7-trimethyl-9-((S)-7-(methylamino)-6,7-dihydro-5H-cyclopenta[b]pyridin-2-yl)-N-(4-morpholinophenyl)-4b,5,7,8,8a,9-hexahydropyrano[3′,4′:4,5]pyrrolo[2,3-d]pyrimidin-2-amine] were, in that order, less than 10 nM and less than 100 nM.
For `C[C@H]1CCC(=O)N1c1cccc(N2c3nc(Nc4cnn(C5CCN(C)CC5)c4)ncc3C3(C)COC(C)(C)CC23)n1` (stereo in doubt) [Example 556, (S)-5-methyl-1-(6-((4bR,8aR)-4b,7,7-trimethyl-2-((1-(1-methylpiperidin-4-yl)-1H-pyrazol-4-yl)amino)-4b,7,8,8a-tetrahydropyrano[3′,4′:4,5]pyrrolo[2,3-d]pyrimidin-9(5H)-yl)pyridin-2-yl)pyrrolidin-2-one] the same measures were less than 10 nM and 100 to 1000 nM.
As to `CN1C[C@H]2C[C@@H]1CN2c1ccc(Nc2ncc3c(n2)N(c2cccc(C4(O)CC4)n2)C2CC(C)(C)OCC32C)cc1` (stereo in doubt) [Example 646, 1-(6-((4bR,8aR)-4b,7,7-trimethyl-2-((4-((1R,4R)-5-methyl-2,5-diazabicyclo[2.2.1]heptan-2-yl)phenyl)amino)-4b,7,8,8a-tetrahydropyrano[3′,4′:4,5]pyrrolo[2,3-d]pyrimidin-9(5H)-yl)pyridin-2-yl)cyclopropan-1-ol], the IC50 against Wee1 kinase domain (setting [2]) was less than 10 nM; in assay [1] (setting [3]), 100 to 1000 nM.
In the case of `CN1CC2CC1CN2c1ccc(Nc2ncc3c(n2)N(c2cccc(C(F)F)n2)[C@@H]2CC(C)(C)OC[C@]32C)cc1` (stereo in doubt) [Example 814, (4bR,8aR)-9-(6-(difluoromethyl)pyridin-2-yl)-4b,7,7-trimethyl-N-(4-((1R,4R)-5-methyl-2,5-diazabicyclo[2.2.1]heptan-2-yl)phenyl)-4b,5,7,8,8a,9-hexahydropyrano[3′,4′:4,5]pyrrolo[2,3-d]pyrimidin-2-amine], the IC50 at Wee1 kinase domain (1 nM Wee1 enzyme, 4 hours at 25° C) was less than 10 nM; in assay [1] (A-427, read-out: A427 pCDC2 MSD IC50), 100 to 1000 nM.
As to `CN1CCN(c2ccc(Nc3ncc4c(n3)N(c3cccc(N=S(C)(C)=O)n3)[C@@H]3CC(C)(C)OC[C@]43C)cc2)CC1` [Example 100, Dimethyl((6-((4bR,8aR)-4b,7,7-trimethyl-2-((4-(4-methylpiperazin-1-yl)phenyl)amino)-4b,7,8,8a-tetrahydropyrano[3′,4′:4,5]pyrrolo[2,3-d]pyrimidin-9(5H)-yl)pyridin-2-yl)imino)-l6-sulfanone], the IC50 against Wee1 kinase domain (Wee1 kinase domain, ADP-Glo) was less than 10 nM; in assay [1] (A-427, pCDC2 MSD), less than 100 nM.
The like results for `CNC(=O)c1ccc(Nc2ncc3c(n2)N(c2cccc(N=S(C)(C)=O)n2)[C@@H]2CC(C)(C)OC[C@]32C)cc1F` [Example 119, 4-(((4bR,8aR)-9-(6-((dimethyl(oxo)-16-sulfaneylidene)amino)pyridin-2-yl)-4b,7,7-trimethyl-4b,5,7,8,8a,9-hexahydropyrano[3′,4′:4,5]pyrrolo[2,3-d]pyrimidin-2-yl)amino)-2-fluoro-N-methylbenzamide] were, in that order, less than 10 nM and 100 to 1000 nM.
The like results for `CN1CCC(n2ccc(Nc3ncc4c(n3)N(c3cccc(N=S(C)(C)=O)n3)[C@@H]3CC(C)(C)OC[C@]43C)cc2=O)CC1` [Example 152, 4-(((4bR,8aR)-9-(6-((dimethyl(oxo)-16-sulfaneylidene)amino)pyridin-2-yl)-4b,7,7-trimethyl-4b,5,7,8,8a,9-hexahydropyrano[3′,4′:4,5]pyrrolo[2,3-d]pyrimidin-2-yl)amino)-1-(1-methylpiperidin-4-yl)pyridin-2(1H)-one] were, in that order, less than 10 nM and 100 to 1000 nM.
For `CN1CCC(n2cc(Nc3ncc4c(n3)N(c3cccc(N=S(C)(C)=O)n3)[C@@H]3CC(C)(C)OC[C@]43C)cn2)C1` (stereo partly drawn) [Example 196, dimethyl((6-((4bR,8aR)-4b,7,7-trimethyl-2-((1-((R)-1-methylpyrrolidin-3-yl)-1H-pyrazol-4-yl)amino)-4b,7,8,8a-tetrahydropyrano[3′,4′:4,5]pyrrolo[2,3-d]pyrimidin-9(5H)-yl)pyridin-2-yl)imino)-16-sulfanone] the same measures were less than 10 nM and 100 to 1000 nM.
For the compound `CN1CC2(C1)CN(c1ccc(Nc3ncc4c(n3)N(c3cccc(N=S(C)(C)=O)n3)[C@@H]3CC(C)(C)OC[C@]43C)cc1)C2` [Example 219, dimethyl((6-((4bR,8aR)-4b,7,7-trimethyl-2-((4-(6-methyl-2,6-diazaspiro[3.3]heptan-2-yl)phenyl)amino)-4b,7,8,8a-tetrahydropyrano[3′,4′:4,5]pyrrolo[2,3-d]pyrimidin-9(5H)-yl)pyridin-2-yl)imino)-l6-sulfanone], the IC50 was less than 10 nM on Wee1 kinase domain (Wee1 kinase domain, ADP-Glo) and 100 to 1000 nM in assay [1] (A-427, pCDC2 MSD).
For `C[C@H]1COC(=O)N1c1cccc(N2c3nc(Nc4ccc(N5CCN(C)CC5)nn4)ncc3[C@@]3(C)COC(C)(C)C[C@@H]23)n1` [Example 249] the same measures were less than 10 nM and 100 to 1000 nM.
Regarding `CN(C)Cc1cccc(N2c3nc(Nc4ccc(C(C)(C)C(=O)O)cc4)ncc3[C@@]3(C)COC(C)(C)C[C@@H]23)n1` [Example 611], the values for the IC50 (on Wee1 kinase domain (setting [2]); in assay [1] (setting [3])) were less than 10 nM and 1000 to 10000 nM, respectively.
For `CC1(C)C[C@H]2N(c3cccc(N4CCOC4=O)n3)c3nc(Nc4ccc(O[C@H]5CCNC5)cc4)ncc3[C@@]2(C)CO1` [Example 613, 3-(6-((4bR,8aR)-4b,7,7-trimethyl-2-((4-(((S)-pyrrolidin-3-yl)oxy)phenyl)amino)-4b,7,8,8a-tetrahydropyrano[3′,4′:4,5]pyrrolo[2,3-d]pyrimidin-9(5H)-yl)pyridin-2-yl)oxazolidin-2-one] the same measures were less than 10 nM and less than 100 nM.
For the compound `CN1CC[C@H](Oc2ccc(Nc3ncc4c(n3)N(c3cccc(N5CCOC5=O)n3)[C@@H]3CC(C)(C)OC[C@]43C)cc2)C1` [Example 615, 3-(6-((4bR,8aR)-4b,7,7-trimethyl-2-((4-(((S)-1-methylpyrrolidin-3-yl)oxy)phenyl)amino)-4b,7,8,8a-tetrahydropyrano[3′,4′:4,5]pyrrolo[2,3-d]pyrimidin-9(5H)-yl)pyridin-2-yl)oxazolidin-2-one], the IC50 against Wee1 kinase domain (setting [2]) was less than 10 nM; in assay [1] (setting [3]), less than 100 nM.
For `CC1(C)C[C@H]2N(c3cccc(N4CCCC4=O)n3)c3nc(Nc4ccc(O[C@@H]5CCNC5)cc4)ncc3[C@@]2(C)CO1` [Example 616, 1-(6-((4bR,8aR)-4b,7,7-trimethyl-2-((4-(((R)-pyrrolidin-3-yl)oxy)phenyl)amino)-4b,7,8,8a-tetrahydropyrano[3′,4′:4,5]pyrrolo[2,3-d]pyrimidin-9(5H)-yl)pyridin-2-yl)pyrrolidin-2-one] the same measures were less than 10 nM and 100 to 1000 nM.
